Measurements as given in patent publication US20240246916A1, “7-NITRO-8-HYDROXYQUINOLINE DERIVATIVES, PREPARATION METHOD THEREFORE AND MEDICAL USE THEREOF” (Jiangsu Yahong Meditech Co., Ltd., priority 2021, published 2024).
Values after ≈ are worked out from the molar mass of the structure shown.

Tests used:
Format in all cases: cell-based
[1] = tested on: Endothelial cell line HUVEC; experiment: Inhibitory activity on cells, CellTiter-Glo viability, HUVEC; settings: Homo sapiens, 72 hours treatment
Method: (§1) HUVEC (purchased from Allcells Biological Technology (Shanghai) Co., Ltd.); UM-UC-3 (ATCC); LNCaP (ATCC); RM-1 (purchased from Nanjing Cobioer Biosciences Co., Ltd.) (1) On the first day, the cells were seeded in a 96-well plate, and the previous medium was poured off. 5 mL of DPBS was added to wash the cells, and then removed by a pipette and discarded. Then, 1 mL of trypsin (0.25%) was added, and the plate was placed in a cell culture incubator at 37 °C, 5% CO2 for digestion, and taken out after about 2 to 5 minutes. New corresponding medium was added, and pipetted to resuspend the cells evenly, and the cells were then counted with an automated cell counter. Regarding HUVEC, the medium used was endothelial cell complete medium; regarding UM-UC-3, the medium used was 89 v % EMEM+10 v % fetal bovine serum+1 v % penicillin-streptomycin double anti-body; regarding LNcaP, the medium used was 89 v % RPM11640+10 v % fetal bovine serum+1 v % penicillin-streptomycin double anti-body; and regarding RM1, the medium used was 89 v % DMEM+10 v % fetal bovine serum+1 v % penicillin-streptomycin double anti-body. (2) HUVEC cells were seeded in columns 1 to 11 of a 96-well plate (Corning, Cat. No. 3610) at a density of 2000 cells per well in 100 μL of medium, and the medium free of cell was added to the wells of column 12. The other three types of cells were also seeded, wherein UM-UC-3 and RM-1 cells were seeded at a density of 3000 cells per well, and LNCap cells were seeded at a density of 5000 cells per well. Then, the plate was placed in an incubator at 37° C., 5% CO2 for 24 hours. (3) On the second day, the compounds of the present invention and the reference drug nitroxoline (obtained according to the preparation method disclosed in the prior art) were diluted in gradient (2.5 folds, started at 100 μmol) to obtain 8 dose points (there were a total of 8 columns of wells; the first column of wells had the highest concentration, the concentration decreased in turn, and the last column of wells had the lowest concentration). 10 μL of the compound diluted in gradient was added to the 100 μL of cells in column 1 to column 10 with an 8-channel pipette. 10 μL of the corresponding medium containing 0.33 v % DMSO was added to column 11 and column 12. The plate was incubated in an incubator at 37° C., 5% CO2 for 72 hours (note: column 11 was used as MAX well with cells and no compounds; and column 12 was used as MIN well with no cells and no compounds). (4) After treating with the compounds of the present invention for 72 hours, the cell viability detection reagents in the above CellTiter-Glo® assay kit were added to the 96-well plate at 50 μL per well according to the instructions. The plate was shaken on a shaker in the dark for 5 to 10 minutes, and then the cell activity was determined by a multifunctional microplate reader. Finally, the growth inhibition of the compounds of the present invention on the cells was plotted by XLFIT 5.3 software, and the IC50 values of the compounds of the present invention were calculated.

[2] = tested on: Bladder cancer cell line UM-UC-3; experiment: Inhibitory activity on cancer cells, CellTiter-Glo viability, UM-UC-3; settings: Homo sapiens, UMUC3, 72 hours treatment
Method: as §1

[3] = tested on: Prostate cancer cell line LNcaP; experiment: Inhibitory activity on cancer cells, CellTiter-Glo viability, LNcaP; settings: Homo sapiens, 72 hours treatment
Method: as §1

[4] = tested on: Mouse prostate cancer cell line RM1; experiment: Inhibitory activity on cancer cells, CellTiter-Glo viability, RM1; settings: 72 hours treatment
Method: as §1

[5] = tested on: Escherichia coli (carbapenem-resistant clinical isolate; ATCC25922); experiment: MIC by micro broth dilution (CLSI), Escherichia coli; settings: for MIC50 / MIC90: ATCC25922, Clinical strain; for MIC50 / MIC90 / MIC: Escherichia coli; for MIC50: read-out: MIC50; for MIC90: read-out: MIC90; for MIC: Standard strain ATCC25922, read-out: MIC
Outline: (§2)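 First, DMSO solutions were diluted over 128 to 0.06 mg/L in CAMHB; next, overnight cultures adjusted to 0.5 McFarland and diluted 100-fold were added to give 10^5 CFU/mL; then incubation ran 20 hours at 35±2° C, with CLSI 2019 M100 used for interpretation.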

[6] = tested on: Acinetobacter baumannii (carbapenem-resistant clinical isolates; ATCC19606); experiment: MIC by micro broth dilution (CLSI), Acinetobacter baumannii; settings: for MIC50 / MIC90: ATCC19606, Clinical strain; for MIC50 / MIC90 / MIC: Acinetobacter baumannii; for MIC50: read-out: MIC50; for MIC90: read-out: MIC90; for MIC: Standard strain ATCC19606, read-out: MIC
Outline: as §2

[7] = tested on: Staphylococcus aureus (methicillin-resistant and sensitive clinical isolates; ATCC29213); experiment: MIC by micro broth dilution (CLSI), Staphylococcus aureus; settings: for MIC50 / MIC90: Clinical strain; for MIC50: read-out: MIC50; for MIC90: read-out: MIC90; for MIC: Standard strain ATCC29213, read-out: MIC
Outline: as §2

IC50 [2]	IC50 [3]	IC50 [4]	MIC50 [5]	MIC90 [5]	MIC [5]	MIC50 [6]	MIC90 [6]	MIC [6]	MIC50 [7]	MIC90 [7]	MIC [7]	Structure (SMILES)	IC50 [1]	inhibitory effect against Escherichia coli compared with the reference drug nitroxoline ([5]; MIC comparison)	inhibitory effect against Acinetobacter baumannii compared with the reference drug nitroxoline ([6]; MIC comparison)
4.38 µM	3.33 µM	6.8 µM	–	–	–	–	–	–	–	–	–	CC1CCCCN1c1ccnc2c(O)c([N+](=O)[O-])ccc12 (centres unmarked) [Example 20, 4-(2-Methylpiperidinyl)-7-nitroquinolin-8-ol]	5.6 µM	–	–
4.84 µM	6.75 µM	6.8 µM	8 µg/mL (≈ 36.3 µM)	32 µg/mL (≈ 145 µM)	8 µg/mL (≈ 36.3 µM)	32 µg/mL (≈ 145 µM)	64 µg/mL (≈ 291 µM)	32 µg/mL (≈ 145 µM)	4 µg/mL (≈ 18.2 µM)	8 µg/mL (≈ 36.3 µM)	8 µg/mL (≈ 36.3 µM)	COc1ccnc2c(O)c([N+](=O)[O-])ccc12 [Example 21, 4-Methoxy-7-nitroquinolin-8-ol]	10.3 µM	–	–
1.99 µM	2.31 µM	2.3 µM	128 µg/mL (≈ 481 µM)	128 µg/mL (≈ 481 µM)	> 128 µg/mL	128 µg/mL (≈ 481 µM)	> 128 µg/mL	128 µg/mL (≈ 481 µM)	2 µg/mL (≈ 7.51 µM)	32 µg/mL (≈ 120 µM)	2 µg/mL (≈ 7.51 µM)	O=[N+]([O-])c1ccc2c(-c3ccccc3)ccnc2c1O [Example 22, 4-Phenyl-7-nitroquinolin-8-ol]	1.46 µM	–	–
> 100 µM	> 100 µM	> 100 µM	–	–	–	–	–	–	–	–	–	O=[N+]([O-])c1ccc2c(N3CC=CC3)ccnc2c1O [Example 23, 4-(2,5-Dihydro-1H-pyrrolyl)-7-nitroquinolin-8-ol]	> 100 µM	–	–
48 µM	49.6 µM	53.6 µM	128 µg/mL (≈ 462 µM)	128 µg/mL (≈ 462 µM)	128 µg/mL (≈ 462 µM)	128 µg/mL (≈ 462 µM)	> 128 µg/mL	128 µg/mL (≈ 462 µM)	128 µg/mL (≈ 462 µM)	128 µg/mL (≈ 462 µM)	128 µg/mL (≈ 462 µM)	CN(C)CCOc1ccnc2c(O)c([N+](=O)[O-])ccc12 [Example 24, 4-(2-(Dimethylamino)ethoxy)-7-nitroquinolin-8-ol]	> 100 µM	–	–
44.5 µM	32.4 µM	47.2 µM	128 µg/mL (≈ 371 µM)	> 128 µg/mL	32 µg/mL (≈ 92.7 µM)	128 µg/mL (≈ 371 µM)	> 128 µg/mL	> 128 µg/mL	16 µg/mL (≈ 46.3 µM)	16 µg/mL (≈ 46.3 µM)	> 128 µg/mL	CN(C)C(=O)N1CCN(c2ccnc3c(O)c([N+](=O)[O-])ccc23)CC1 [Example 25, 4-(8-Hydroxy-7-nitroquinolin-4-yl)-N,N-dimethylpiperazine-1-carboxamide]	47.6 µM	–	–
11.4 µM	11.9 µM	12.5 µM	> 128 µg/mL	> 128 µg/mL	128 µg/mL (≈ 385 µM)	64 µg/mL (≈ 193 µM)	> 128 µg/mL	> 128 µg/mL	16 µg/mL (≈ 48.1 µM)	64 µg/mL (≈ 193 µM)	128 µg/mL (≈ 385 µM)	COC(=O)N1CCN(c2ccnc3c(O)c([N+](=O)[O-])ccc23)CC1 [Example 26]	15.1 µM	–	–
4.11 µM	11.9 µM	13.2 µM	128 µg/mL (≈ 615 µM)	> 128 µg/mL	64 µg/mL (≈ 307 µM)	> 128 µg/mL	> 128 µg/mL	> 128 µg/mL	64 µg/mL (≈ 307 µM)	64 µg/mL (≈ 307 µM)	64 µg/mL (≈ 307 µM)	O=[N+]([O-])c1ccc2c(F)ccnc2c1O [Example 27, 4-Fluoro-7-nitroquinolin-8-ol]	3.17 µM	–	–
42.3 µM	33 µM	17 µM	> 128 µg/mL	> 128 µg/mL	> 128 µg/mL	64 µg/mL (≈ 202 µM)	> 128 µg/mL	> 128 µg/mL	32 µg/mL (≈ 101 µM)	32 µg/mL (≈ 101 µM)	> 128 µg/mL	COC(=O)[C@@H]1CCCN1c1ccnc2c(O)c([N+](=O)[O-])ccc12 [Example 28, Methyl (8-hydroxy-7-nitroquinolin-4-yl)-L-prolinate]	17.3 µM	–	–
9.11 µM	7.03 µM	6.5 µM	4 µg/mL (≈ 15.4 µM)	8 µg/mL (≈ 30.9 µM)	4 µg/mL (≈ 15.4 µM)	2 µg/mL (≈ 7.72 µM)	4 µg/mL (≈ 15.4 µM)	2 µg/mL (≈ 7.72 µM)	0.5 µg/mL (≈ 1.93 µM)	1 µg/mL (≈ 3.86 µM)	1 µg/mL (≈ 3.86 µM)	O=[N+]([O-])c1cc(Cl)c2c(Cl)ccnc2c1O [Example 29, 4,5-dichloro-7-nitroquinolin-8-ol]	6.22 µM	comparable to that of the reference drug nitroxoline	comparable to that of the reference drug nitroxoline
> 100 µM	> 100 µM	> 100 µM	> 128 µg/mL	> 128 µg/mL	> 128 µg/mL	> 128 µg/mL	> 128 µg/mL	> 128 µg/mL	> 128 µg/mL	> 128 µg/mL	> 128 µg/mL	O=[N+]([O-])c1ccc2c(O)ccnc2c1O [Example 30, 7-Nitroquinoline-4,8-diol]	> 100 µM	–	–
4.07 µM	1.04 µM	5.32 µM	–	–	–	–	–	–	–	–	–	O=[N+]([O-])c1cc(Cl)c2c(C3CC3)ccnc2c1O [Example 49, 5-Chloro-4-cyclopropyl-7-nitroquinolin-8-ol]	1.59 µM	–	–
0.49 µM	0.55 µM	2.35 µM	–	–	–	–	–	–	–	–	–	CCC(C)OC(=O)N1CCN(c2ccnc3c(O)c([N+](=O)[O-])cc(Cl)c23)CC1 (centres unmarked) [Example 57, (1-Methyl)propyl 4-(5-chloro-8-hydroxy-7-nitroquinolin-4-yl)piperazine-1-carboxylate]	0.47 µM	–	–
2.55 µM	0.89 µM	0.91 µM	–	–	–	–	–	–	–	–	–	CC(C)OC(=O)N1CCN(c2ccnc3c(O)c([N+](=O)[O-])cc(Cl)c23)CC1 [Example 58, Isopropyl 4-(5-chloro-8-hydroxy-7-nitroquinolin-4-yl)piperazine-1-carboxylate]	0.68 µM	–	–
5.82 µM	0.64 µM	1.13 µM	–	–	–	–	–	–	–	–	–	O=[N+]([O-])c1cc(Cl)c2c(OC3CCCCC3)ccnc2c1O [Example 60, 5-Chloro-4-(cyclohexyloxy)-7-nitroquinolin-8-ol]	0.7 µM	–	–
7.07 µM	2.01 µM	7.47 µM	–	–	–	–	–	–	–	–	–	O=[N+]([O-])c1cc(Cl)c2c(N3CCC4(CC3)CC4)ccnc2c1O [Example 63, 5-Chloro-7-nitro-4-(6-azaspiro[2.5]octan-6-yl)quinolin-8-ol]	1.82 µM	–	–
11.5 µM	13.2 µM	21.7 µM	–	–	–	–	–	–	–	–	–	O=[N+]([O-])c1cc(Cl)c2c(F)ccnc2c1O [Example 65, 5-Chloro-4-fluoro-7-nitroquinolin-8-ol]	9.03 µM	–	–
9.27 µM	1.77 µM	2.05 µM	–	–	–	–	–	–	–	–	–	COc1c(C2CC2)cnc2c(O)c([N+](=O)[O-])ccc12 [Example 75, 3-cyclopropyl-4-methoxy-7-nitroquinolin-8-ol]	3.41 µM	–	–
